# Experimental data as given in US10745454B2, “Method of synthesizing antagonist peptides for cell growth” (priority 2018, dated 2020).
# Experiments:
# [1] = test system: PI3K/AKT and MAPK/ERK1/2 pathways; test: Quantitative Western blot of PI3K/AKT and MAPK/ERK1/2 activation in 4T1 tumor extracts; format: in vivo, murine
# Procedure: In vivo Tumor Growth Regression-Animal studies are conducted according to relevant national and international guidelines of the Weatherall report and Institutional Animal Care and Use Committee (IACUC) of Tehran University of Medical Sciences. The tumors induced in the female BALB/c mice (5 weeks old) are purchased from the Laboratory Animal Center of Iran Pasteur Institute and maintained under 12 h dark and light cycle. The 4T1 tumor model mouse are sterilized and established from the breast cancer bearing BALB/c mice by a standard protocol. The 4T1 tumor model mouse are prepared by cutting the tumor into pieces of <0.3 cm3. The tumor pieces are subcutaneously transplanted into the left flank of the mouse under ketamine (100 mg/kg, i.p.) and xylazine (10 mg/kg, i.p.) anesthesia. The mouse carrying tumors with a tumor size reaching to 400 mm3 are randomized and divided into groups. Each group of tumor induced mice comprises 6 mouse. The first group is treated with vascular endothelial growth factor (VEGF). The second group is treated with phosphate buffer saline. The first group or treated groups receives daily 1, 2.5 and 10 mg/kg i.p. of VEGF-antagonistic peptides compared to PBS control group for two weeks. The tumor volume is measured every two days by a digital Vernier caliper (Mitutoyo, japan), using the following formula: v=a2×b×0.52 (where “a” is the shortest and “b” is the longest diameter).
# The tumor tissues from control and peptide-treated (cultured cells or mice) are lysed with RIPA lysis buffer. […] Protein concentrations are assessed by Bradford assay. […]
# The premium nitrocellulose western blotting membranes are washed with TBST and incubated with horseradish peroxidase-conjugated goat anti-mouse IgG secondary antibody. […] The quantitative analysis of protein expression to the reference protein, repeated at least three times, is performed using ImageJ. […]
# [2] = test system: ovarian cancer cell line SKOV3; test: bFGF-induced SKOV3 proliferation assay (MTT); format: cell-based, human; settings: for bFGF-induced proliferation of SKOV3: hr-bFGF, peptide 25-1000 ng/ml, 5-6 days
# Procedure: Cell Proliferation Assay—To analyze the ability of basic fibroblast growth factor (bFGF) antagonist peptide to inhibit the bFGF-induced cell proliferation, the ovarian cell line SKOV3 is utilized. The SKOV3 cell line is found to be dependent on bFGF for cellular proliferation. For cell culture, SKOV3 cells are maintained in DMEM supplemented with 5% FBS, 1% streptomycin, penicillin, […] glutamine and is mycoplasma free.
# For estimating the anti-proliferative activity of bFGF, SKOV3 is plated at 1×10^4 cell per well in a 24 well dish in 1 ml DMEM, the cells are maintained in DMEM and treated with human recombinant bFGF (hr-bFGF) (0-100 ng/ml) alone and in combination with different concentration of the antagonistic peptide (25-1000 ng/ml) every other day for total 5-6 days. The experiment is terminated when cells are in confluence. The MTT assay is performed. The absorbance is determined at 540 nm. The results are expressed as the mean of triplicate experiments (+SD). One-way analysis of variance is used to determine significance.
# bFGFR-1 (receptor) = target: T1, bFGFR-1 (receptor) (Homo sapiens, UniProt P11362); test: Competitive binding assay with bFGFR-1 in HUVECs (immunofluorescence); settings: peptide 1000-2000 ng/ml overnight
# T1 construct: with bFGFR-1 (receptor) in Human Umbilical Vein Endothelial Cells (HUVECs); endogenous in cells; host or cells: HUVEC (Human Umbilical Vein Endothelial Cells)
# Procedure: Binding Assay—To assess competitive binding assay of bFGF antagonist, Human Umbilical Vein Endothelial Cells(HUVECs) are cultured in 96-well plates (5000 cells/well) with DMEM and 5% fetal bovine serum (FBS) incubated at 37° C. for overnight. After 24 h, the media in the 96-well plates is changed with DMEM without FBS and the cells are treated (except the control 96-well plates) with 1000-2000 ng/ml the peptides at 37° C. for overnight. The cells are fixed by 4% paraformaldehyde at room temperature for 5-10 min. After 5-10 minutes the cells are rinsed with phosphate buffer saline (PBS), permeabilized with PBS+0.3% Triton X-100. The […] with a mixture comprising 10% normal goat serum, bovine serum albumin (BSA) 1% PBST for 20 minutes in the room temperature. After 20 minutes the cells are subjected to anti-FGFR-1 (5000 ng/ml, Ab10646) with FITC-secondary (Ab6717) antibody and stained with propidium iodide (Sigma Aldrich, USA, P4170) (1 μg/ml) for nuclear staining. The cell-binding is analyzed by NIH Image J software.
# HUVECs = test: Matrigel tube formation assay, bFGF antagonist; format: cell-based, human; settings: peptide 2000 ng/ml
# 4T1 tumor = test: Histopathological staining of angiogenesis markers CD31 and CD34 in 4T1 tumors of treated mice; format: in vivo, BALB/c mice; settings: 4T1 tumor tissue; i.p. daily, two weeks
# Procedure: In vivo Tumor Growth Regression-Animal studies are conducted according to relevant national and international guidelines of the Weatherall report and Institutional Animal Care and Use Committee (IACUC) of Tehran University of Medical Sciences. The tumors induced in the female BALB/c mice (5 weeks old) are purchased from the Laboratory Animal Center of Iran Pasteur Institute and maintained under 12 h dark and light cycle. The 4T1 tumor model mouse are sterilized and established from the breast cancer bearing BALB/c mice by a standard protocol. The 4T1 tumor model mouse are prepared by cutting the tumor into pieces of <0.3 cm3. […] The tumor volume is measured every two days by a digital Vernier caliper (Mitutoyo, japan), using the following formula: v=a2×b×0.52 (where “a” is the shortest and “b” is the longest diameter).
# Histopathological analyses—The excised tumor tissues are fixed in formalin (4%), embedded in paraffin, sectioned and stained against CD31, CD34, Ki-67, P53, Bcl-2 and TUNEL. […] To count microvessels of the murine breast cancer tissue, the 5 randomly selected vascularized areas are counted under scale bar 100 and 20 μm. The microvascular density (MVD) of the tumor is measured and evaluated by the standard protocol. The microvessels are manually counted on the images at scale bar of 20 μm. […]
# endothelial cell = settings: Alzheimer's disease context; cited from earlier work
# adipose tissue = settings: mice; cited from earlier work
# [3] = 4T1 mammary carcinoma tumor tissues
# [4] = listed as bFGF antagonistic peptide
# T1 sequence (P11362 22-822): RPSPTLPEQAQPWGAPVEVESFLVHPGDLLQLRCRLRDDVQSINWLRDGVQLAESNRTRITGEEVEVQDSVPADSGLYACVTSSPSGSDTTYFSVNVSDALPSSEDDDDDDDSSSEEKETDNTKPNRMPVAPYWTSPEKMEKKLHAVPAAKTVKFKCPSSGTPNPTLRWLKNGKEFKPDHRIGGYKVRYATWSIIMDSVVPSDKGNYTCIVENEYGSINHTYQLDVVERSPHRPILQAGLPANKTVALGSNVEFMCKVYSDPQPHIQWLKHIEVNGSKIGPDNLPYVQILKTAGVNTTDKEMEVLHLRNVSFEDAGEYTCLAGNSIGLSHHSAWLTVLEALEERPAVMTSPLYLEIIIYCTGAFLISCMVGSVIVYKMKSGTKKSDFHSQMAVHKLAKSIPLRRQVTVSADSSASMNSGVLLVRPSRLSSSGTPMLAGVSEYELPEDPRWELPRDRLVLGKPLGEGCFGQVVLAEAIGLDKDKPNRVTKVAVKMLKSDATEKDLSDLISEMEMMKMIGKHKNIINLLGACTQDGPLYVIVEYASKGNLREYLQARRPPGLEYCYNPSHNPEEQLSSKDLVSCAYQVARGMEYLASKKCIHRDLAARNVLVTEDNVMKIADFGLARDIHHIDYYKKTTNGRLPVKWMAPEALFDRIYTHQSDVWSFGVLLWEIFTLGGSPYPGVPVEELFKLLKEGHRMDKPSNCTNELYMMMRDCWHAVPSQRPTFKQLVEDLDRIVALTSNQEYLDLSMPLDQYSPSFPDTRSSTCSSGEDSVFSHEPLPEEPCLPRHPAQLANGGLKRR
molecule,measurement,setting,value
"2HN-Leu119-Lys120-Arg121-Thr122-Gly123-Gln124-Tyr125-Lys126-Leu127-COOH (H-LKRTGQYKL-OH; listed as Homo sapiens) [Seq. ID No. 5, antagonist of bFGF, residues 119-127 of bFGF]",AKT phosphorylation,[1]; [3],able to block
same,ERK1/2 phosphorylation,[1]; [3],able to block
same,difference in p-AKT or p-ERK inhibition levels between dosages,[1]; dosages 1 and 10 mg/kg,no significant difference
same,bFGF-induced proliferation of SKOV3,[2],suppressing bFGF-induced proliferation
same,bFGF-induced proliferation of SKOV3,[2]; listed as bFGF antagonist peptide,inhibits the bFGF-induced proliferation of ovarian cancer cell line SKOV3 in a dose-dependent manner
same,bFGF-induced proliferation of SKOV3,[2]; [4],inhibit the proliferation
same,SKOV3 cell proliferation at 400 ng/ml peptide,[2]; peptide 400 ng/ml,reduced
same,binding to bFGFR-1,bFGFR-1 (receptor),recognizes bFGFR
same,binding to bFGFR-1,bFGFR-1 (receptor); [4],recognizes and binds
same,"anti-angiogenic activity, Matrigel assay",HUVECs,inhibits the angiogenesis process
same,"anti-angiogenic effect, staining of angiogenesis marker CD31",4T1 tumor,inhibits the angiogenesis
same,"anti-angiogenic effect, staining of angiogenesis marker CD34",4T1 tumor,inhibits the angiogenesis
CN(C)c1ccc(/C=C2\C(=O)Nc3ccccc32)cc1 [SU 4312],vessel formation,endothelial cell,could be blocked
CO[C@@H]1[C@H](OC(=O)NC(=O)CCl)CC[C@]2(CO2)[C@H]1[C@@]1(C)O[C@@H]1CC=C(C)C [TNP-470],diet-induced and genetic obesity,adipose tissue,able to prevent
same,vascularity in the adipose tissue,adipose tissue,reduced
